For the first experiment, the target named is T1, OR10J5 (Homo sapiens, UniProt Q8NHC4).
T1 construct: Flag; Rho (rhodopsin-derived tag); expressed in transfected cells
T1 sequence (Q8NHC4 1-309): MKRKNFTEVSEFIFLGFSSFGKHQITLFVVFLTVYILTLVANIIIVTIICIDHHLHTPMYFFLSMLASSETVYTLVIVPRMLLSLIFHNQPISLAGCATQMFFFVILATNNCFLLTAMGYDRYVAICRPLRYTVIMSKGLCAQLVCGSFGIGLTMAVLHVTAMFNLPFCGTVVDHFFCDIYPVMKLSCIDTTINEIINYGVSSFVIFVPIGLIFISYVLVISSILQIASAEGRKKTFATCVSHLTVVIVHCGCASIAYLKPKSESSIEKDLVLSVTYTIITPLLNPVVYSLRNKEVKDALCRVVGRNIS
The experiment in a line: LYRAL® dose-response with serial enhancer concentrations, allosteric EC50 shift model. It is filed as cell-based. The following applies: enhancer 0 to 600 μM; allosteric EC50 shift equation (Prism7); α>1 indicates positive allosteric modulation. The protocol:
Functional dose-response experiments were performed to reveal the allosteric nature of the interaction between 3-(1,3-benzodioxol-5-yl)-2-methylpropanal, 3-(4-methylcyclohex-3-en-1-yl)butanal, 2,6-dimethylhept-5-enal and heptanal and OR10J5. The level of enhancement of OR10J5's activation was evaluated at distinct concentrations of each enhancer. Using the same cell-based assay described earlier, dose response curves of OR10J5 to LYRAL® in the presence of serial concentrations of the enhancers spanning from 0 to 600 μM were performed, see FIG. 5. The curves were obtained by applying the simplified Allosteric EC50 shift effect equation (available in Prism7) derived from the ternary complex interaction model. The enhancement levels recorded were not linearly dependent on the concentration of the enhancer, and the following key parameters values for α (the cooperativity factor) and KB (the equilibrium dissociation constant of the enhancer) were obtained from the model for each enhancer: 3-(1,3-benzodioxol-5-yl)-2-methylpropanal, α=6.3 and KB=10 μM; 3-(4-methylcyclohex-3-en-1-yl)butanal, α=7.5 and KB=15 μM; 2,6-dimethylhept-5-enal, α=4.1 and KB=16 μM; and heptanal; α=3.2 and KB=51 μM. α>1 is indicative of positive allosteric modulation.
With `CC(C)=CCCC(C)C=O` (racemic) [2,6-dimethylhept-5-enal], the “α (cooperativity factor)” value came out at 4.1.
In the case of `CCCCCCC=O` [heptanal], the “α (cooperativity factor)” value amounted to 3.2.

Staying with this experiment, now noted: read-out: KB (equilibrium dissociation constant of the enhancer).
Consider `CC(C)=CCCC(C)C=O` (racemic) [2,6-dimethylhept-5-enal], for which the Kb worked out at 16 µM.
Still for that read-out and setting: the same measure for `CCCCCCC=O` [heptanal]: 51 µM.

The target of another experiment is T2, OR10J5 olfactory receptor (Homo sapiens, UniProt Q8NHC4).
T2 construct: Flag; Rho (rhodopsin-derived tag); expressed in transfected cells
T2 sequence (Q8NHC4 1-309): T1 sequence (Q8NHC4 1-309)
The experiment in a line: Single-point binary mixture enhancement screen (LYRAL® at about EC20 + test compound), cAMP HTRF. It is filed as cell-based. As to conditions: binary mixture of 4.6 μM LYRAL® and 300 μM test compound, HEK293T. As for the experimental part:
A dose response curve showing the activation of OR10J5 in response to the floral muguet compound 3-(4-hydroxy-4-methylpentyl)cyclohex-3-ene-1-carbaldehyde, 4-(4-hydroxy-4-methylpentyl)cyclohex-3-ene-1-carbaldehyde or a mixture thereof (sold under the tradename LYRAL®, hereinafter referred to as “LYRAL®”) is shown in FIG. 1. Using a cell-based assay, OR10J5 activity was tested in a HEK293T cell line wherein the endogenous chaperone RTP1 gene has been activated and the odorant receptor chaperone was expressed according to the methods disclosed in International Patent Application Publication No. WO2016/201153 A1. […]
A library of volatile compounds was used to create binary mixtures of each compound with LYRAL® at approximately EC20, a concentration eliciting only approximately 20% of full activity level of OR10J5 by itself. […] Single binary mixture-induced receptor activity was detected by measuring the cAMP increase in the cytosol using an HTRF (Homogenous Time-Resolved Fluorescence unit) based kit (CisBio, cAMP dynamic 2 kit, 62AM4PEJ). […]
The resulting activation was then measured and compared to LYRAL® alone (defining the baseline of the enhancement assay). The quality of the HTS process was determined and the window variability and signal reliability were assessed by calculating the Z′ value of each plate. […]
Take `COC(=O)c1ccccc1/N=C/c1ccccc1` [compound 15]: the “OR10J5 olfactory receptor agonists among screen hits” value is “agonists”.
For the molecule `C[C@@H]1C/C=C\CCCCCCCCCC(=O)C1` [compound 2], the “OR10J5 olfactory receptor agonists among screen hits” value is “agonists”.

Another experiment concerns the target T2, OR10J5 olfactory receptor. The experiment in a line: Inhibition of LYRAL® (EC80)-induced receptor activity, screen and dose-response. It is filed as cell-based. The following applies: dose-response in the presence of EC80 LYRAL®. As for the experimental part: Using the same cell-based assay described herein, OR10J5 activity inhibition was tested with binary mixtures of LYRAL® and a test compound. Volatile compounds were used to create binary mixtures of each compound with LYRAL® at approximately EC80, a concentration eliciting approximately 80% of full activity level of OR10J5 by itself. An activation cell-based assay was used for the initial inhibitor candidate identification as disclosed in WO2019101813.
The binary mixtures were created by mixing a LYRAL® stock solution with a stock solution of each test compound to a final concentration XXX and 300 μM, respectively. Stock solutions were made of compounds dissolved in pure DMSO. Each mixture was presented to a cell line expressing the OR10J5 olfactory receptor. Similar to the enhancement screening conditions, the final concentration of DMSO in each binary mixture was 0.1%, and had no visible effect on the cells. The resulting activation was measured and compared to LYRAL® alone (defining the activity baseline of the assay, ˜EC80). […] The quality of the HTS process was determined and the window (activity range between EC80 and the DMSO baseline) variability and signal reliability were assessed by calculating the Z′ value of each plate.
Candidate inhibitors identified were tested in a dose-response inhibition experiments to confirm the inhibition properties of the potential candidates. The dose-response curve in the presence of EC80 LYRAL® concentration (generating 80% activity on OR10J5) was assessed for dose-dependent activity level decrease. […] Both potency and efficacy of the confirmed inhibitors were evaluated by calculating their half-maximal inhibition concentration (IC50) relative to EC80 LYRAL and the amount of inhibition (Span), respectively. The IC50 values indicate the inhibition level with respect to the potency. The Span values indicate the inhibition level with respect to the inhibition efficacy. The IC50 values are used to rank order the compounds from strongest to weakest inhibitors of OR10J5 (FIG. 9a-d).
In the case of `CCCc1ccc2c(c1)OCC(=O)CO2` [7-propyl-2H,4H-1,5-benzodioxepin-3-one], the “inhibition of the OR10J5 response to LYRAL®” value is listed as “decreased the response”.
The same measure, in the same setting: the same measure for `CC1=CCCC2(C)OC2CCC(C)=CCC1` (centres unmarked) [trimethyl-13-oxabicyclo-[10.1.0]-trideca-4,8-diene]: “decreased the response”.
On the same count and under the same terms, the same measure for `CCOC(=O)C(=O)C(C)CC` (racemic) [(+−)-ethyl 3-methyl-2-oxopentanoate]: “decreased the response”; for `C=C1CC[C@@H]2O[C@]2(C)CC[C@@H]2[C@@H]1CC2(C)C` [(−)-(1R,4R,6S,10S)-4,12,12-trimethyl-9-methylene-5-oxatricyclo[8.2.0.0^4,6]dodecane]: “decreased the response”.

Another experiment deals with T2, OR10J5 olfactory receptor. Briefly: Dose-response confirmation of enhancer candidates, alone and with EC20 LYRAL®. As to conditions: response to LYRAL® raised beyond EC20 without measurable intrinsic activity. In kind it is cell-based. The protocol: A dose response curve showing the activation of OR10J5 in response to the floral muguet compound 3-(4-hydroxy-4-methylpentyl)cyclohex-3-ene-1-carbaldehyde, 4-(4-hydroxy-4-methylpentyl)cyclohex-3-ene-1-carbaldehyde or a mixture thereof (sold under the tradename LYRAL®, hereinafter referred to as “LYRAL®”) is shown in FIG. 1. Using a cell-based assay, OR10J5 activity was tested in a HEK293T cell line wherein the endogenous chaperone RTP1 gene has been activated and the odorant receptor chaperone was expressed according to the methods disclosed in International Patent Application Publication No. WO2016/201153 A1. The Flag-Rho-tagged receptor was co-transfected with the olfactory canonical G-protein Golf and was exposed to a binary mixture of a single concentration of LYRAL® and a test compound.
A library of volatile compounds was used to create binary mixtures of each compound with LYRAL® at approximately EC20, a concentration eliciting only approximately 20% of full activity level of OR10J5 by itself. An activation cell-based assay was used for the initial enhancer candidate identification as disclosed in WO2019122236. Single binary mixture-induced receptor activity was detected by measuring the cAMP increase in the cytosol using an HTRF (Homogenous Time-Resolved Fluorescence unit) based kit (CisBio, cAMP dynamic 2 kit, 62AM4PEJ).
The 37 candidates remaining in Table 2 were identified and were tested in two parallel dose-response experiments to confirm the true enhancement properties of the potential candidates. First, a dose-response of each individual candidate was performed to determine if it was an agonist by itself. Second, the same candidate dose-response curve in the presence of EC20 LYRAL® concentration (generating 20% activity on OR10J5) was assessed for activity level increase.
Take `CC(C=O)c1ccccc1` (centres unmarked) [2-phenylpropanal]: the “enhancement of OR10J5 LYRAL® activation (true enhancer)” value (“enhancement” for short) is “potent enhancement”.
The same measure, in the same setting: the same measure for `CCCCCCCC=O` [octanal]: “potent enhancement”; for `CC(C)c1ccc(C=O)cc1` [4-Propan-2-ylbenzaldehyde]: “potent enhancement”; for `CC(C)=CCCC(C)C=O` (racemic) [2,6-dimethylhept-5-enal]: “potent enhancement”.
As to `CC1=CC(C)C(C=O)C(C)C1` (centres unmarked) [2,4,6-trimethyl-3-cyclohexene-1-carbaldehyde], the “enhancement” value was “potent enhancement”.
For the molecule “(+−)-3-(4-Methyl-3-penten-1-yl)-3-cyclohexene-1-carbaldehyde + (+−)-4-(4-Methyl-3-penten-1-yl)-3-cyclohexene-1-carbaldehyde”, the “enhancement” value was “potent enhancement”.
`O=Cc1ccccc1` [benzaldehyde]: the “enhancement” value is “potent enhancement”.
Take `Cc1cccc(C=O)c1` [3-methylbenzaldehyde]: the “enhancement” value was “potent enhancement”.
As to `CCCCCCC=O` [heptanal], the “enhancement” value was “potent enhancement”.
Regarding `CCCCCC/C=C/C=O` [(E)-non-2-enal], the “enhancement” value is on record as “potent enhancement”.
For `C/C=C/C=O` [(E)-but-2-enal], the “enhancement” value is listed as “potent enhancement”.
In the case of `CC(C)=CCC[C@@H](C)CC=O` [(3R)-3,7-dimethyloct-6-enal], the “enhancement” value is reported as “potent enhancement”.
Turning to “3,5,6-Trimethyl-3-Cyclohexene-1-Carbaldehyde + 2,4,6-Trimethyl-3-Cyclohexene-1-Carbaldehyde”, the “enhancement” value is reported as “potent enhancement”.
For the molecule `CCc1ccc(C=O)cc1` [4-ethylbenzaldehyde], the “enhancement” value is recorded as “potent enhancement”.
On the same count and under the same terms, the same measure for `CCCCCC=O` [hexanal]: “potent enhancement”; for `Cc1ccc(CC(C)C=O)cc1` (racemic) [2-methyl-3-(4-methylphenyl)propanal]: “potent enhancement”.
Turning to `COC(C)(C)CCCC(C)C=O` (racemic) [6-methoxy-2,6-dimethylheptanal], the “enhancement” value is on record as “potent enhancement”.
`CCCCCCC/C=C/C=O` [(E)-dec-2-enal]: the “enhancement” value is given as “potent enhancement”.

Another experiment has as its target T1, OR10J5. The experiment in a line: (+−)-2,5-dimethyl-2-indanmethanol dose-response with a steady concentration of test compound. It is filed as cell-based.
Settings: not given
As for the experimental part:
OR10J5 activity enhancement was tested with an additional agonist and with one of the test compounds and conditions described in the Examples above. Dose response curves to (+−)-2,5-dimethyl-2-indanmethanol was obtained in the presence of a steady concentration of the test compound and compared to a dose-response curve of the agonist alone. The resulting enhancement was quantified by means of EC50-fold shift (potency increase) and the efficacy span ratio (efficacy increase) as described above.
Consider `Cc1ccc2c(c1)CC(C)(CO)C2` (racemic) [(+−)-2,5-dimethyl-2-indanmethanol, reference compound], for which the “agonist character at OR10J5” value is recorded as “partial agonist”.

(Values after patent US11951197B2, “Use of volatile compounds to modulate the perception of floral muguet” (FIRMENICH SA, priority 2018, dated 2024).)
